Measurements reported in US12617779B2, “Self degradation-type CDK9 inhibitor prodrug and liposome encapsulating same” (Sumitomo Pharma Co., Ltd., priority 2021, dated 2026).

Assay: Evaluation of conversion rate to active form in buffer solution (Experimental Example 1)
Assay type: physicochemical
Settings: for Production rate of Alvocidib / Residual rate: 37° C., 25 umol/L in buffer solution; for Stability in buffer solution at pH 5: pH 5, 37° C., up to 2 or 3 hours; for Conversion to Alvocidib at pH 7.4: pH 7.4, 37° C., up to 3 hours
How it was run: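 Prodrugs were held at 25 umol/L and 37° C in 50 mM citrate (pH 5.0, 5.5) or 50 mM phosphate (pH 6.0–7.4) buffer. Parent remaining and Alvocidib formed were quantified by HPLC at 0, 0.5, 1, 2 and 3 hours.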

## CN1CC[C@H](c2c(OC(=O)N(Cc3ccccc3)CC3CCCCN3)cc(O)c3c(=O)cc(-c4ccccc4Cl)oc23)[C@H](O)C1 (stereo partly drawn) [Example 15, 2-(2-chlorophenyl)-5-hydroxy-8-[(3S,4R)-3-hydroxy-1-methylpiperidin-4-yl]-4-oxo-4H-1-benzopyran-7-yl benzyl [(piperidin-2-yl)methyl]carbamate]
pH5.0, 0 hr
  Production rate of Alvocidib: 1.4%
  Residual rate: 95.6%
  Stability in buffer solution at pH 5: stable
  Conversion to Alvocidib at pH 7.4: rapidly converted to Alvocidib
pH5.0, 0.5 hr
  Production rate of Alvocidib: 1.9%
  Residual rate: 95.2%
pH5.0, 1 hr
  Production rate of Alvocidib: 2.6%
  Residual rate: 94.7%
pH5.0, 2 hr
  Production rate of Alvocidib: 3.8%
  Residual rate: 93.5%
pH5.0, 3 hr
  Production rate of Alvocidib: 4.6%
  Residual rate: 92.5%
pH5.5, 0 hr
  Production rate of Alvocidib: 1.4%
  Residual rate: 95.6%
pH5.5, 0.5 hr
  Production rate of Alvocidib: 2.8%
  Residual rate: 94.2%
pH5.5, 1 hr
  Production rate of Alvocidib: 4.5%
  Residual rate: 92.7%
pH5.5, 2 hr
  Production rate of Alvocidib: 7.8%
  Residual rate: 89.5%
pH5.5, 3 hr
  Production rate of Alvocidib: 9.5%
  Residual rate: 87.8%
pH6.0, 0 hr
  Production rate of Alvocidib: 1.5%
  Residual rate: 95.5%
pH6.0, 0.5 hr
  Production rate of Alvocidib: 6.2%
  Residual rate: 91.0%
pH6.0, 1 hr
  Production rate of Alvocidib: 12.4%
  Residual rate: 84.7%
pH6.0, 2 hr
  Production rate of Alvocidib: 22.3%
  Residual rate: 62.8%
pH6.0, 3 hr
  Production rate of Alvocidib: 25.7%
  Residual rate: 56.7%
pH6.5, 0 hr
  Production rate of Alvocidib: 1.9%
  Residual rate: 94.8%
pH6.5, 0.5 hr
  Production rate of Alvocidib: 15.1%
  Residual rate: 82.2%
pH6.5, 1 hr
  Production rate of Alvocidib: 26.1%
  Residual rate: 56.3%
pH6.5, 2 hr
  Production rate of Alvocidib: 44.6%
  Residual rate: 32.9%
pH6.5, 3 hr
  Production rate of Alvocidib: 52.4%
  Residual rate: 24.3%
pH7.0, 0 hr
  Production rate of Alvocidib: 2.8%
  Residual rate: 94.1%
pH7.0, 0.5 hr
  Production rate of Alvocidib: 40.7%
  Residual rate: 38.5%
pH7.0, 1 hr
  Production rate of Alvocidib: 56.9%
  Residual rate: 7.1%
pH7.0, 2 hr
  Production rate of Alvocidib: 69.8%
  Residual rate: 3.8%
pH7.0, 3 hr
  Production rate of Alvocidib: 69.9%
  Residual rate: 3.9%
pH7.4, 0 hr
  Production rate of Alvocidib: 4.8%
  Residual rate: 92.2%
pH7.4, 0.5 hr
  Production rate of Alvocidib: 54.7%
  Residual rate: 21.1%
pH7.4, 1 hr
  Production rate of Alvocidib: 67.3%
  Residual rate: 8.0%
pH7.4, 2 hr
  Production rate of Alvocidib: 75.2%
  Residual rate: 3.1%
pH7.4, 3 hr
  Production rate of Alvocidib: 77.2%
  Residual rate: 2.9%

## CCCN(C[C@H]1CCCCN1)C(=O)Oc1cc(O)c2c(=O)cc(-c3ccccc3Cl)oc2c1[C@H]1CCN(C)C[C@H]1O [Example 6, 2-(2-chlorophenyl)-5-hydroxy-8-[(3S,4R)-3-hydroxy-1-methylpiperidin-4-yl]-4-oxo-4H-1-benzopyran-7-yl {[(2R)-piperidin-2-yl]methyl}propylcarbamate]
pH5.0, 0 hr
  Production rate of Alvocidib: 0.5%
  Residual rate: 99.3%
  Stability in buffer solution at pH 5: stable
  Conversion to Alvocidib at pH 7.4: rapidly converted to Alvocidib
pH5.0, 0.5 hr
  Production rate of Alvocidib: 0.9%
  Residual rate: 99.1%
pH5.0, 1 hr
  Production rate of Alvocidib: 1.3%
  Residual rate: 98.7%
pH5.0, 2 hr
  Production rate of Alvocidib: 2.0%
  Residual rate: 97.8%
pH5.0, 3 hr
  Production rate of Alvocidib: 2.6%
  Residual rate: 96.8%
pH5.5, 0 hr
  Production rate of Alvocidib: 0.5%
  Residual rate: 99.5%
pH5.5, 0.5 hr
  Production rate of Alvocidib: 1.6%
  Residual rate: 98.1%
pH5.5, 1 hr
  Production rate of Alvocidib: 2.5%
  Residual rate: 97.0%
pH5.5, 2 hr
  Production rate of Alvocidib: 4.3%
  Residual rate: 94.2%
pH5.5, 3 hr
  Production rate of Alvocidib: 6.2%
  Residual rate: 91.9%
pH6.0, 0 hr
  Production rate of Alvocidib: 0.6%
  Residual rate: 99.4%
pH6.0, 0.5 hr
  Production rate of Alvocidib: 4.0%
  Residual rate: 94.8%
pH6.0, 1 hr
  Production rate of Alvocidib: 7.1%
  Residual rate: 90.7%
pH6.0, 2 hr
  Production rate of Alvocidib: 13.2%
  Residual rate: 82.5%
pH6.0, 3 hr
  Production rate of Alvocidib: 18.6%
  Residual rate: 75.2%
pH6.5, 0 hr
  Production rate of Alvocidib: 0.6%
  Residual rate: 99.4%
pH6.5, 0.5 hr
  Production rate of Alvocidib: 10.1%
  Residual rate: 86.6%
pH6.5, 1 hr
  Production rate of Alvocidib: 18.6%
  Residual rate: 75.3%
pH6.5, 2 hr
  Production rate of Alvocidib: 31.9%
  Residual rate: 56.9%
pH6.5, 3 hr
  Production rate of Alvocidib: 42.8%
  Residual rate: 42.3%
pH7.0, 0 hr
  Production rate of Alvocidib: 0.7%
  Residual rate: 99.3%
pH7.0, 0.5 hr
  Production rate of Alvocidib: 27.0%
  Residual rate: 63.7%
pH7.0, 1 hr
  Production rate of Alvocidib: 44.4%
  Residual rate: 40.4%
pH7.0, 2 hr
  Production rate of Alvocidib: 62.8%
  Residual rate: 16.1%
pH7.0, 3 hr
  Production rate of Alvocidib: 69.8%
  Residual rate: 6.8%
pH7.4, 0 hr
  Production rate of Alvocidib: 0.9%
  Residual rate: 99.1%
pH7.4, 0.5 hr
  Production rate of Alvocidib: 47.8%
  Residual rate: 36.3%
pH7.4, 1 hr
  Production rate of Alvocidib: 65.7%
  Residual rate: 12.7%
pH7.4, 2 hr
  Production rate of Alvocidib: 73.6%
  Residual rate: 2.7%
pH7.4, 3 hr
  Production rate of Alvocidib: 75.3%
  Residual rate: 0.7%
